Measurements published in patent US10485846B2, “Collagenase-derived peptides promote tissue regeneration and wound healing” (Tufts University, priority 2014, dated 2019).

Tests used:
cranial cutaneous wounds = assay: Cranial cutaneous excisional wound healing in cyclophosphamide-treated mice (impaired healing model); format: in vivo, Balb/c mice; conditions: peptide in CMC applied daily days 1-5, day 6 post-injury; vs untreated control or collagenase (FIGS. 7-8)
Method: Balb/c mice were pre-treated with cyclophosphamide at 150 mg/kg 3 days prior to injury and with 100 mg/kg cyclophosphamide 1 day before injury. Cranial cutaneous wounds were created using 4 mm punch biopsy tool and immediately covered with adherent transparent dressing (TEGADERM™). The peptides were prepared fresh daily and injected under the dressing on days 1-5 post injury. On day 6 after wounding the animals were sacrificed according to Division of Laboratory Animal Medicine (DLAM) approved procedures. Wounds together with surrounding healthy tissues were excised, cut in half along the midline and either fixed in 4% phosphate buffered formaldehyde or frozen in OCT for further processing. […]
Wounds were created, treated as described in FIG. 6 and scored in a blind manner according to the grading described in Table 2. * indicates statistical significance of findings (p<0.05).
Wounds were created and treated as described in FIG. 1. Wound epithelialization was measured at day 6 post wounding. ** indicate statistical significance of findings (p<0.05). […]
Following cyclophosphamide treatment, animals were injured and then wounds treated/covered. Test entities were coded so that the nature of the experiment was blinded to the investigator; and, each specimen was evaluated and scored blindly according to the wound healing system shown in Table 2, prior to unmasking the experimental code. […]

[1] = system: adult human keratinocytes; assay: Scratch wound closure / post-injury migration of keratinocyte monolayer; format: cell-based; conditions: 10 nM peptide, monitored 0, 1, 3 and 5 hours post-injury (FIG. 5)
Method: Adult human keratinocytes were plated into glass-bottom well plates at high density. Scratch wounds were made in the cell monolayer 24 h post-plating. The peptides dissolved in keratinocyte growth media (10 nM) were applied immediately after wounding. Wound closure was monitored at 0, 1, 3 and 5 hours post-injury. Dashed line outlines the wounds. Representative images of wounds treated with TSN2 and TSN6 are shown.
Human epidermis-derived keratinocytes were plated at a post-confluent density prior to mechanical injury in the presence or absence of bioactive wound healing peptides or control entities.

[2] = system: human microvascular endothelial cells; assay: In vitro angiogenesis / tube formation on growth factor-reduced Matrigel; format: cell-based; conditions: 100 nM peptide in Matrigel and media (FIG. 4)
Method: ECM-derived peptides were dissolved in growth factor-reduced Matrigel at 100 nM, the matrix was allowed to polymerize, human microvascular endothelial cells were plated either in control low serum containing media or media containing 100 nM peptides. Representative images of cells treated with endothelial ECM-derived peptides are shown.
Function-specific domains present within TSN1/2 and the newly-engineered “combinatorial” peptides present within TSN 10 are able to promote in vitro angiogenesis. TSN peptides promote morphogenesis and angiogenic activation by stimulating migration, proliferation and tube formation; peptide-stimulated endothelial tubes are more numerous, of greater length, having more branch points then control treated endothelial cell cultures.

[3] = system: human microvascular endothelial cells; assay: Human microvascular endothelial cell proliferation (coulter counter cell count); format: cell-based; conditions: for endothelial cell proliferation relative to control: 100 nM peptides every other day, counted day 5 post-plating (FIG. 2); for endothelial growth-promoting activity compared with fibroblast growth factor 2 (FGF2): FIG. 2
Method: Human microvascular endothelial cells were plated at low density in multi-well plates and treated with 100 nM peptides every other day. At day 5 post-plating the cells were counted using a coulter counter. Cell proliferation relative to control is shown. *statistical significance (p<0.05).
(§1) In our efforts aimed at characterizing the growth-promoting, migration-enhancing and angiogenesis-inducing activities embodied in SANTYL® collagenase Ointment and in an effort focused on contrasting the efficacy of collagenase vs. the newly-discovered SANTYL® collagenase API-derived bioactive wound healing peptide(s), we continue to perform a battery of pre-clinical tests and trials using the well-established models of injury and repair developed, here, at Tufts University School of Medicine and the Center for Innovations in Wound Healing Research. To these ends, we took advantage of the 2D and 3D injury/repair models developed to quantify cellular responses to injury. […] This is especially noteworthy since these peptides not only promote vascular endothelial growth but, adult human keratinocyte growth.

[4] = system: adult human keratinocytes; assay: Adult human keratinocyte proliferation (coulter counter cell count); format: cell-based; conditions: FIG. 3B, PK vs. peptides
Method: Adult human keratinocytes were plated at low density in multi-well plates and treated with 10 nM peptides (FIG. 3A) or 1-100 nM peptides (FIG. 3B) every other day. At day 7 post-plating the cells were counted using a coulter counter. Cell proliferation relative to control (FIG. 3A) or absolute cell number grown (FIG. 3B) are shown. *statistical significance (p<0.05).
as §1

| Sequence | wound healing in vivo (wound score, Table 2 grading; wound closure) (cranial cutaneous wounds) | keratinocyte migration in response to scratch injury (wound closure) [1] | in vitro angiogenesis (tube formation) [2] | endothelial cell proliferation relative to control [3] | endothelial growth-promoting activity compared with fibroblast growth factor 2 (FGF2) [3] | keratinocyte growth-promoting activity compared with PK SANTYL collagenase API [4] |
| --- | --- | --- | --- | --- | --- | --- |
| HSPDIQLQKGLTFEPIQIK (listed as Homo sapiens) [TSN6, 19 aa peptide; origin Multimerin-1 Coiled coil domain] | markedly stimulated to heal wounds | marked migration-enhancing activity | – | – | – | – |
| MENAELDVPIQSVFTR (listed as Homo sapiens) [TSN2, 16 aa peptide; origin Thrombospondin-1 N-terminal domain] | – | marked migration-enhancing activity | angiogenesis-inducing activity | stimulate human dermally-derived microvascular endothelial cell growth in vitro | exceed the growth-promoting activity embodied in fibroblast growth factor 2 (FGF2) | completely accounting for the keratinocyte growth-promoting activity present within PK SANTYL collagenase API |
| RPGPSPEGTGQSYNYR (listed as Homo sapiens) [TSN8, 16 aa peptide] | – | – | markedly promoted in vitro angiogenesis | – | – | – |
| NFQGVQNRFVFGTP (listed as Homo sapiens) [TSN1, 14 aa peptide; origin Thrombospondin-1 Laminin G-like domain] | – | – | markedly promoted in vitro angiogenesis | stimulate human dermally-derived microvascular endothelial cell growth in vitro | exceed the growth-promoting activity embodied in fibroblast growth factor 2 (FGF2) | completely accounting for the keratinocyte growth-promoting activity present within PK SANTYL collagenase API |
| TGQSYNQYSQRPYLGVYVFK (listed as Homo sapiens) [TSN10, 20 aa combinatorial peptide; Combination of Thrombospondin and multimerin peptides] | – | – | markedly promoted in vitro angiogenesis | – | – | completely accounting for the keratinocyte growth-promoting activity present within PK SANTYL collagenase API |
